Assay [1] has as its system ENR+CD organoids (ISC to Paneth cell differentiation). Kind of assay: Primary screen: basal (non-stimulated) lysozyme secretion LYZ.NS, 2.5-D 384-well ENR+CD organoid differentiation. It counts as cell-based, mouse. To be noted: primary screen; for Dose.FC.LYZ.NS: FC relative to plate median; for Z.LYZ.NS: standard z score. The source says: (§1) High-throughput screening.

Assay [2] shares this test system. Kind of assay: Primary screen: CCh-stimulated lysozyme secretion LYZ.S, 2.5-D 384-well ENR+CD organoid differentiation. It counts as cell-based, mouse. Particulars: primary screen, FC relative to plate median.
Description: as §1

The test system of assay [3] is ENR+CD organoids. Kind of assay: Primary screen: ATP (CellTiter-Glo 3D, CTG) cell number/viability, 2.5-D 384-well ENR+CD organoids.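 As to all read-outs here: compounds given at plating and again on day 3 over a 6-day differentiation from ENR+CV stem-cell-enriched precursors, ATP measured on day 6, plate median as control.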 Particulars: primary screen; for Dose.FC.CTG: FC relative to plate median; for Z.CTG: standard z score. (In general: Cellular ATP, detected with luciferase, serves as a proxy for viable cell number.)

In the case of `CCn1c(N)c(C(=O)NC)c(=O)c2ccc(C#C[C@@](C)(O)COC)nc21` [SAR131675], the Dose.FC.LYZ.NS in assay [1] (dose 0.08 uM) is 0.055 log2 fold change; in assay [1] (dose 0.40 uM), 0.089 log2 fold change; in assay [1] (dose 2.00 uM), 0.021 log2 fold change; in assay [1] (dose 10.00 uM), −0.088 log2 fold change. Also, the Z.LYZ.NS is 0.483 in assay [1] (dose 0.08 uM), 0.774 in assay [1] (dose 0.40 uM), 0.181 in assay [1] (dose 2.00 uM) and −0.766 in assay [1] (dose 10.00 uM). In addition, the Dose.FC.LYZ.S in assay [2] (dose 0.08 uM) is reported as 0.148 log2 fold change; in assay [2] (dose 0.40 uM), 0.096 log2 fold change; in assay [2] (dose 2.00 uM), 0.026 log2 fold change; in assay [2] (dose 10.00 uM), 0.000 log2 fold change. The Dose.FC.CTG is 0.175 log2 fold change in assay [3] (dose 0.08 uM), −0.084 log2 fold change in assay [3] (dose 0.40 uM), 0.071 log2 fold change in assay [3] (dose 2.00 uM) and 0.062 log2 fold change in assay [3] (dose 10.00 uM). Besides, the Z.CTG in assay [3] (dose 0.08 uM) is 0.419; in assay [3] (dose 0.40 uM), −0.201; in assay [3] (dose 2.00 uM) it was 0.169; in assay [3] (dose 10.00 uM) it was 0.149.

Take `C[S+]([O-])c1ccc(-c2nc(-c3ccc(F)cc3)c(-c3ccncc3)[nH]2)cc1` (centres unmarked) [SB203580]: the Dose.FC.LYZ.NS in assay [1] (dose 0.08 uM) turned out to be 0.092 log2 fold change; in assay [1] (dose 0.40 uM) it was 0.127 log2 fold change; in assay [1] (dose 2.00 uM), 0.052 log2 fold change; in assay [1] (dose 10.00 uM) it was 0.023 log2 fold change. The Z.LYZ.NS was 0.805 in assay [1] (dose 0.08 uM), 1.109 in assay [1] (dose 0.40 uM), 0.453 in assay [1] (dose 2.00 uM) and 0.199 in assay [1] (dose 10.00 uM). In addition, the Dose.FC.LYZ.S came out at 0.148 log2 fold change in assay [2] (dose 0.08 uM), 0.098 log2 fold change in assay [2] (dose 0.40 uM), 0.077 log2 fold change in assay [2] (dose 2.00 uM) and 0.069 log2 fold change in assay [2] (dose 10.00 uM). For the same molecule, the Dose.FC.CTG in assay [3] (dose 0.08 uM) turned out to be 0.201 log2 fold change; in assay [3] (dose 0.40 uM), 0.149 log2 fold change; in assay [3] (dose 2.00 uM), 0.237 log2 fold change; in assay [3] (dose 10.00 uM), 0.182 log2 fold change. The Z.CTG in assay [3] (dose 0.08 uM) amounted to 0.479; in assay [3] (dose 0.40 uM) it was 0.356; in assay [3] (dose 2.00 uM) it was 0.567; in assay [3] (dose 10.00 uM), 0.435.

With `Cc1cc(NC(=O)Nc2ccc(N(C)C)cc2)c2cc(F)cc(F)c2n1` [SB408124], the Dose.FC.LYZ.NS in assay [1] (dose 0.08 uM) is reported as 0.172 log2 fold change; in assay [1] (dose 0.40 uM), 0.134 log2 fold change; in assay [1] (dose 2.00 uM) it was 0.084 log2 fold change; in assay [1] (dose 10.00 uM), −0.070 log2 fold change. The Z.LYZ.NS in assay [1] (dose 0.08 uM) is recorded as 1.494; in assay [1] (dose 0.40 uM), 1.168; in assay [1] (dose 2.00 uM), 0.730; in assay [1] (dose 10.00 uM) it was −0.607. Further, the Dose.FC.LYZ.S in assay [2] (dose 0.08 uM) is reported as 0.198 log2 fold change; in assay [2] (dose 0.40 uM) it was 0.193 log2 fold change; in assay [2] (dose 2.00 uM) it was 0.082 log2 fold change; in assay [2] (dose 10.00 uM), −0.148 log2 fold change. In addition, the Dose.FC.CTG in assay [3] (dose 0.08 uM) is 0.410 log2 fold change; in assay [3] (dose 0.40 uM), 0.334 log2 fold change; in assay [3] (dose 2.00 uM), 0.364 log2 fold change; in assay [3] (dose 10.00 uM) it was 0.091 log2 fold change. The Z.CTG in assay [3] (dose 0.08 uM) amounted to 0.978; in assay [3] (dose 0.40 uM), 0.799; in assay [3] (dose 2.00 uM) it was 0.869; in assay [3] (dose 10.00 uM), 0.216.

In the case of `O=C1NC(=O)C(c2ccccc2[N+](=O)[O-])=C1Nc1ccc(O)c(Cl)c1` [SB415286], the Dose.FC.LYZ.NS in assay [1] (dose 0.08 uM) is given as 0.145 log2 fold change; in assay [1] (dose 0.40 uM) it was 0.012 log2 fold change; in assay [1] (dose 2.00 uM) it was 0.118 log2 fold change; in assay [1] (dose 10.00 uM), −0.016 log2 fold change. For the same molecule, the Z.LYZ.NS is 1.262 in assay [1] (dose 0.08 uM), 0.101 in assay [1] (dose 0.40 uM), 1.024 in assay [1] (dose 2.00 uM) and −0.136 in assay [1] (dose 10.00 uM). Also, the Dose.FC.LYZ.S in assay [2] (dose 0.08 uM) is given as 0.159 log2 fold change; in assay [2] (dose 0.40 uM), −0.008 log2 fold change; in assay [2] (dose 2.00 uM), −0.053 log2 fold change; in assay [2] (dose 10.00 uM), −0.042 log2 fold change. The Dose.FC.CTG in assay [3] (dose 0.08 uM) is listed as 0.221 log2 fold change; in assay [3] (dose 0.40 uM), −0.004 log2 fold change; in assay [3] (dose 2.00 uM), −0.097 log2 fold change; in assay [3] (dose 10.00 uM) it was 0.123 log2 fold change. The Z.CTG is 0.527 in assay [3] (dose 0.08 uM), −0.011 in assay [3] (dose 0.40 uM), −0.231 in assay [3] (dose 2.00 uM) and 0.293 in assay [3] (dose 10.00 uM).

These data come from patent publication US20220323406A1, “METHODS AND COMPOSITIONS FOR DIFFERENTIATING STEM CELLS” (Massachusetts Institute of Technology, priority 2019, published 2022).
